Results taken from the supplement of paper PMC10307832.

Key:
Test in all cases: relative viability (nuclei count vs DMSO), 5 days (fraction); higher = more cells survive
[1] = system: NCI-H1944
Outline: (§1)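 Relative viability divides the nuclei count in treated wells by that in vehicle wells. Lung cancer cell lines were seeded in 1536-well plates, dosed by pin tool the next day, and fixed and stained after 5 days in one step with final 0.05% Triton X-100, 1% formaldehyde and 1 ug/ml Hoechst. Dosing was a single drug or a fixed anchor-drug dose plus five library-drug doses (not always all listed) in √10 steps, and values are medians of duplicate plates imaged at 4×.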

[2] = system: LC-2-ad
Outline: as §1

[3] = system: COR-L 105
Outline: as §1

[4] = system: NCI-H3122
Outline: as §1

[5] = system: NCI-H661
Outline: as §1

[6] = system: LU99A
Outline: as §1

[7] = system: NCI-H1395
Outline: as §1

[8] = system: NCI-H1734
Outline: as §1

[9] = system: PC-14
Outline: as §1

[10] = system: NCI-H838
Outline: as §1

[11] = system: HARA
Outline: as §1

[12] = system: SK-LU-1
Outline: as §1

[13] = system: NCI-H1975
Outline: as §1

[14] = system: PC-3 [JPC-3]
Outline: as §1

[15] = system: HCC-366
Outline: as §1

[16] = system: NCI-H647
Outline: as §1

[17] = system: H3255
Outline: as §1

[18] = system: NCI-H520
Outline: as §1

[19] = system: NCI-H1666
Outline: as §1

[20] = system: NCI-H1993
Outline: as §1

[21] = system: HCC-15
Outline: as §1

O=C(O)CCCCC(CCSCc1ccccc1)SCc1ccccc1 (stereo not given) [CPI-613] + Nc1ncn([C@H]2C[C@H](O)[C@@H](CO)O2)c(=O)n1 [Decitabine] (partner 2 µM)
relative viability ([1]; first compound 5 µM): 0.429
relative viability ([1]; first compound 15.81 µM): 0.406
relative viability ([1]; first compound 50 µM): 0.395
relative viability ([1]; first compound 158.11 µM): 0.277
relative viability ([1]; first compound 500 µM): 0.168
relative viability ([2]; first compound 5 µM): 0.781
relative viability ([2]; first compound 15.81 µM): 0.859
relative viability ([2]; first compound 50 µM): 0.705
relative viability ([2]; first compound 158.11 µM): 0.578
relative viability ([2]; first compound 500 µM): 0.0132
relative viability ([3]; first compound 5 µM): 0.68
relative viability ([3]; first compound 15.81 µM): 0.671
relative viability ([3]; first compound 50 µM): 0.668
relative viability ([3]; first compound 158.11 µM): 0.375
relative viability ([3]; first compound 500 µM): 0.22
relative viability ([4]; first compound 5 µM): 0.344
relative viability ([4]; first compound 15.81 µM): 0.439
relative viability ([4]; first compound 50 µM): 0.481
relative viability ([4]; first compound 158.11 µM): 0.376
relative viability ([4]; first compound 500 µM): 0.185
relative viability ([5]; first compound 5 µM): 0.547
relative viability ([5]; first compound 15.81 µM): 0.49
relative viability ([5]; first compound 50 µM): 0.577
relative viability ([5]; first compound 158.11 µM): 0.381
relative viability ([5]; first compound 500 µM): 0.0993
relative viability ([6]; first compound 5 µM): 0.886
relative viability ([6]; first compound 15.81 µM): 0.79
relative viability ([6]; first compound 50 µM): 0.815
relative viability ([6]; first compound 158.11 µM): 0.79
relative viability ([6]; first compound 500 µM): 0.219
relative viability ([7]; first compound 5 µM): 0.667
relative viability ([7]; first compound 15.81 µM): 0.654
relative viability ([7]; first compound 50 µM): 0.764
relative viability ([7]; first compound 158.11 µM): 0.675
relative viability ([7]; first compound 500 µM): 0.597
relative viability ([8]; first compound 5 µM): 0.488
relative viability ([8]; first compound 15.81 µM): 0.46
relative viability ([8]; first compound 50 µM): 0.437
relative viability ([8]; first compound 158.11 µM): 0.409
relative viability ([8]; first compound 500 µM): 0.111
relative viability ([9]; first compound 5 µM): 0.266
relative viability ([9]; first compound 15.81 µM): 0.201
relative viability ([9]; first compound 50 µM): 0.23
relative viability ([9]; first compound 158.11 µM): 0.109
relative viability ([9]; first compound 500 µM): 0.0133
relative viability ([10]; first compound 5 µM): 0.449
relative viability ([10]; first compound 15.81 µM): 0.437
relative viability ([10]; first compound 50 µM): 0.386
relative viability ([10]; first compound 158.11 µM): 0.253
relative viability ([10]; first compound 500 µM): 0.104
relative viability ([11]; first compound 5 µM): 0.494
relative viability ([11]; first compound 15.81 µM): 0.467
relative viability ([11]; first compound 50 µM): 0.575
relative viability ([11]; first compound 158.11 µM): 0.289
relative viability ([11]; first compound 500 µM): 0.111
relative viability ([12]; first compound 5 µM): 0.693
relative viability ([12]; first compound 15.81 µM): 0.527
relative viability ([12]; first compound 50 µM): 0.533
relative viability ([12]; first compound 158.11 µM): 0.314
relative viability ([12]; first compound 500 µM): 0.0957
relative viability ([13]; first compound 5 µM): 0.391
relative viability ([13]; first compound 15.81 µM): 0.413
relative viability ([13]; first compound 50 µM): 0.399
relative viability ([13]; first compound 158.11 µM): 0.412
relative viability ([13]; first compound 500 µM): 0.0581
relative viability ([14]; first compound 5 µM): 0.799
relative viability ([14]; first compound 50 µM): 0.879
relative viability ([14]; first compound 158.11 µM): 0.716
relative viability ([14]; first compound 500 µM): 0.622
relative viability ([15]; first compound 5 µM): 0.339
relative viability ([15]; first compound 15.81 µM): 0.31
relative viability ([15]; first compound 50 µM): 0.381
relative viability ([15]; first compound 158.11 µM): 0.202
relative viability ([15]; first compound 500 µM): 0.0146
relative viability ([16]; first compound 5 µM): 0.345
relative viability ([16]; first compound 15.81 µM): 0.462
relative viability ([16]; first compound 50 µM): 0.352
relative viability ([16]; first compound 158.11 µM): 0.0749
relative viability ([16]; first compound 500 µM): 0.0141
relative viability ([17]; first compound 5 µM): 0.626
relative viability ([17]; first compound 15.81 µM): 0.537
relative viability ([17]; first compound 50 µM): 0.665
relative viability ([17]; first compound 158.11 µM): 0.566
relative viability ([17]; first compound 500 µM): 0.569
relative viability ([18]; first compound 5 µM): 0.48
relative viability ([18]; first compound 15.81 µM): 0.502
relative viability ([18]; first compound 50 µM): 0.428
relative viability ([18]; first compound 158.11 µM): 0.271
relative viability ([18]; first compound 500 µM): 0.149
relative viability ([19]; first compound 5 µM): 0.676
relative viability ([19]; first compound 15.81 µM): 0.601
relative viability ([19]; first compound 50 µM): 0.798
relative viability ([19]; first compound 158.11 µM): 0.639
relative viability ([19]; first compound 500 µM): 0.509
relative viability ([20]; first compound 5 µM): 0.643
relative viability ([20]; first compound 15.81 µM): 0.56
relative viability ([20]; first compound 50 µM): 0.679
relative viability ([20]; first compound 158.11 µM): 0.61
relative viability ([20]; first compound 500 µM): 0.327
relative viability ([21]; first compound 5 µM): 0.594
relative viability ([21]; first compound 15.81 µM): 0.592
relative viability ([21]; first compound 50 µM): 0.547
relative viability ([21]; first compound 158.11 µM): 0.265
relative viability ([21]; first compound 500 µM): 0.0057

Cc1cnc(-c2cnc(NCCNc3ccc(C#N)cn3)nc2-c2ccc(Cl)cc2Cl)[nH]1 + Nc1ncn([C@H]2C[C@H](O)[C@@H](CO)O2)c(=O)n1 [Decitabine] (partner 2 µM)
relative viability ([1]; first compound 0.08 µM): 0.476
relative viability ([1]; first compound 0.8 µM): 0.5
relative viability ([1]; first compound 2.53 µM): 0.402
relative viability ([2]; first compound 0.08 µM): 0.791
relative viability ([2]; first compound 0.8 µM): 0.885
relative viability ([2]; first compound 2.53 µM): 0.776
relative viability ([3]; first compound 0.08 µM): 0.639
relative viability ([3]; first compound 0.253 µM): 0.619
relative viability ([3]; first compound 0.8 µM): 0.707
relative viability ([3]; first compound 2.53 µM): 0.49
relative viability ([4]; first compound 0.08 µM): 0.461
relative viability ([4]; first compound 0.8 µM): 0.461
relative viability ([4]; first compound 2.53 µM): 0.386
relative viability ([5]; first compound 0.08 µM): 0.609
relative viability ([5]; first compound 0.253 µM): 0.545
relative viability ([5]; first compound 0.8 µM): 0.569
relative viability ([5]; first compound 2.53 µM): 0.551
relative viability ([6]; first compound 0.08 µM): 0.954
relative viability ([6]; first compound 0.253 µM): 0.873
relative viability ([6]; first compound 0.8 µM): 0.938
relative viability ([6]; first compound 2.53 µM): 0.775
relative viability ([7]; first compound 0.08 µM): 0.774
relative viability ([7]; first compound 0.253 µM): 0.714
relative viability ([7]; first compound 0.8 µM): 0.737
relative viability ([7]; first compound 2.53 µM): 0.757
relative viability ([8]; first compound 0.08 µM): 0.514
relative viability ([8]; first compound 0.253 µM): 0.453
relative viability ([8]; first compound 0.8 µM): 0.544
relative viability ([8]; first compound 2.53 µM): 0.567
relative viability ([9]; first compound 0.08 µM): 0.232
relative viability ([9]; first compound 0.253 µM): 0.171
relative viability ([9]; first compound 0.8 µM): 0.217
relative viability ([9]; first compound 2.53 µM): 0.234
relative viability ([10]; first compound 0.08 µM): 0.503
relative viability ([10]; first compound 0.253 µM): 0.506
relative viability ([10]; first compound 0.8 µM): 0.47
relative viability ([10]; first compound 2.53 µM): 0.46
relative viability ([11]; first compound 0.08 µM): 0.654
relative viability ([11]; first compound 0.253 µM): 0.471
relative viability ([11]; first compound 0.8 µM): 0.553
relative viability ([11]; first compound 2.53 µM): 0.642
relative viability ([12]; first compound 0.08 µM): 0.645
relative viability ([12]; first compound 0.253 µM): 0.478
relative viability ([12]; first compound 0.8 µM): 0.688
relative viability ([12]; first compound 2.53 µM): 0.711
relative viability ([13]; first compound 0.08 µM): 0.349
relative viability ([13]; first compound 0.253 µM): 0.361
relative viability ([13]; first compound 0.8 µM): 0.409
relative viability ([13]; first compound 2.53 µM): 0.314
relative viability ([14]; first compound 0.08 µM): 0.777
relative viability ([14]; first compound 0.253 µM): 0.825
relative viability ([14]; first compound 0.8 µM): 0.785
relative viability ([14]; first compound 2.53 µM): 0.791
relative viability ([15]; first compound 0.08 µM): 0.372
relative viability ([15]; first compound 0.253 µM): 0.318
relative viability ([15]; first compound 0.8 µM): 0.288
relative viability ([15]; first compound 2.53 µM): 0.335
relative viability ([16]; first compound 0.08 µM): 0.381
relative viability ([16]; first compound 0.253 µM): 0.36
relative viability ([16]; first compound 0.8 µM): 0.349
relative viability ([16]; first compound 2.53 µM): 0.297
relative viability ([17]; first compound 0.08 µM): 0.765
relative viability ([17]; first compound 0.253 µM): 0.531
relative viability ([17]; first compound 0.8 µM): 0.551
relative viability ([17]; first compound 2.53 µM): 0.567
relative viability ([18]; first compound 0.08 µM): 0.531
relative viability ([18]; first compound 0.253 µM): 0.504
relative viability ([18]; first compound 0.8 µM): 0.563
relative viability ([18]; first compound 2.53 µM): 0.546
relative viability ([19]; first compound 0.08 µM): 0.759
relative viability ([19]; first compound 0.253 µM): 0.713
relative viability ([19]; first compound 0.8 µM): 0.618
relative viability ([19]; first compound 2.53 µM): 0.844
relative viability ([20]; first compound 0.08 µM): 0.744
relative viability ([20]; first compound 0.253 µM): 0.584
relative viability ([20]; first compound 0.8 µM): 0.628
relative viability ([20]; first compound 2.53 µM): 0.591
relative viability ([21]; first compound 0.08 µM): 0.701
relative viability ([21]; first compound 0.253 µM): 0.588
relative viability ([21]; first compound 0.8 µM): 0.756
relative viability ([21]; first compound 2.53 µM): 0.704
